Reference: US7767659B2, “Synthesis of naturally occurring ecteinascidins and related compounds” (Pharma Mar, S.A., priority 2002, dated 2010)
Read-outs that look alike come from different tables or passages of the source.

Columns and labels:
A-549 = experiment: cells
Summary of the method: (§1)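 Colorimetric SRB read (490 nm) on triplicate wells after 48 h at 37 °C, 5% CO2. Dose range 10 to 10^−8 μg/ml; 5×10^3 cells/well pre-attached 18 h.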

HT-29 = experiment: cells
Summary of the method: as §1

LoVo = experiment: cells
Summary of the method: as §1

DU-145 = experiment: Inhibition of cells growth by colorimetric assay (SRB)
Summary of the method: as §1

HeLa-APL = experiment: as above
Summary of the method: as §1

HeLa = experiment: as above
Summary of the method: as §1

IGROV-1 = experiment: as above
Summary of the method: as §1

IGROV-ET = experiment: as above
Summary of the method: as §1

K-562 = experiment: as above
Summary of the method: as §1

LNCaP = experiment: as above
Summary of the method: as §1

LoVo-Dox = experiment: as above
Summary of the method: as §1

PANC-1 = experiment: as above
Summary of the method: as §1

SK-BR-3 = experiment: as above
Summary of the method: as §1

SK-MEL-28 = experiment: as above
Summary of the method: as §1

In the case of `C=CCN1C2Cc3cc(C)c(OC)c(O)c3C1C1C3SCC(NC(=O)CC)C(=O)OCC(c4c5c(c(C)c(OC(C)=O)c43)OCO5)N1C2C#N` (stereo not drawn) [compound 27], the “TGI A549” value (A-549; A549, SRB, 48 hours exposure) is reported as 2.06E−07 Molar, the GI50 (A-549; read-out: GI50 A549, A549, SRB, 48 hours exposure) is reported as 62.6 nM and the CC50 (A-549; read-out: LC50 A549, A549, SRB, 48 hours exposure) is reported as 1890 nM. For the same molecule, the “TGI HT29” value (HT-29; HT29, SRB, 48 hours exposure) was 1.42E−06 Molar, the GI50 (HT-29; read-out: GI50 HT29, HT29, SRB, 48 hours exposure) was 75.6 nM and the CC50 (HT-29; read-out: LC50 HT29, HT29, SRB, 48 hours exposure) was 14200 nM. The “TGI LOVO” value (LoVo; LOVO, SRB, 48 hours exposure) was 2.36E−07 Molar, the GI50 (LoVo; read-out: GI50 LOVO, LOVO, SRB, 48 hours exposure) was 80.4 nM and the CC50 (LoVo; read-out: LC50 LOVO, LOVO, SRB, 48 hours exposure) was 707 nM. The “TGI DU145” value (DU-145; DU145, SRB, 48 hours exposure) was 8.48E−07 Molar, the GI50 (DU-145; read-out: GI50 DU145, DU145, SRB, 48 hours exposure) was 75.5 nM and the CC50 (DU-145; read-out: LC50 DU145, DU145, SRB, 48 hours exposure) was 14200 nM. The “TGI HELA-APL” value (HeLa-APL; HELA-APL, SRB, 48 hours exposure) was 3.04E−07 Molar, the GI50 (HeLa-APL; read-out: GI50 HELA-APL, HELA-APL, SRB, 48 hours exposure) was 95.1 nM and the CC50 (HeLa-APL; read-out: LC50 HELA-APL, HELA-APL, SRB, 48 hours exposure) was 951 nM. The “TGI HELA” value (HeLa; HELA, SRB, 48 hours exposure) was 2.75E−07 Molar, the GI50 (HeLa; read-out: GI50 HELA, HELA, SRB, 48 hours exposure) was 97.8 nM and the CC50 (HeLa; read-out: LC50 HELA, HELA, SRB, 48 hours exposure) was 786 nM. The “TGI IGROV” value (IGROV-1; IGROV, SRB, 48 hours exposure) was 1.02E−07 Molar, the GI50 (IGROV-1; read-out: GI50 IGROV, IGROV, SRB, 48 hours exposure) was 40.7 nM and the CC50 (IGROV-1; read-out: LC50 IGROV, IGROV, SRB, 48 hours exposure) was 1020 nM. For the same molecule, the “TGI IGROV-ET” value (IGROV-ET; IGROV-ET, SRB, 48 hours exposure) was 3.87E−07 Molar, the GI50 (IGROV-ET; read-out: GI50 IGROV-ET, IGROV-ET, SRB, 48 hours exposure) was 165 nM and the CC50 (IGROV-ET; read-out: LC50 IGROV-ET, IGROV-ET, SRB, 48 hours exposure) was 915 nM. The “TGI K562” value (K-562; K562, SRB, 48 hours exposure) was 5.66E−08 Molar, the GI50 (K-562; read-out: GI50 K562, K562, SRB, 48 hours exposure) was 21.7 nM and the CC50 (K-562; read-out: LC50 K562, K562, SRB, 48 hours exposure) was 206 nM. The “TGI LNCAP” value (LNCaP; LNCAP, SRB, 48 hours exposure) was 6.46E−08 Molar, the GI50 (LNCaP; read-out: GI50 LNCAP, LNCAP, SRB, 48 hours exposure) was 26.1 nM and the CC50 (LNCaP; read-out: LC50 LNCAP, LNCAP, SRB, 48 hours exposure) was 261 nM. For the same molecule, the “TGI LOVO-DOX” value (LoVo-Dox; LOVO-DOX, SRB, 48 hours exposure) was 1.42E−05 Molar, the GI50 (LoVo-Dox; read-out: GI50 LOVO-DOX, LOVO-DOX, SRB, 48 hours exposure) was 431 nM and the CC50 (LoVo-Dox; read-out: LC50 LOVO-DOX, LOVO-DOX, SRB, 48 hours exposure) was 14200 nM. The “TGI PANC-1” value (PANC-1; PANC-1, SRB, 48 hours exposure) was 1.45E−06 Molar, the GI50 (PANC-1; read-out: GI50 PANC-1, PANC-1, SRB, 48 hours exposure) was 92.8 nM and the CC50 (PANC-1; read-out: LC50 PANC-1, PANC-1, SRB, 48 hours exposure) was 14200 nM. The “TGI SK-BR3” value (SK-BR-3; SK-BR3, SRB, 48 hours exposure) was 1.97E−07 Molar, the GI50 (SK-BR-3; read-out: GI50 SK-BR3, SK-BR3, SRB, 48 hours exposure) was 55.8 nM and the CC50 (SK-BR-3; read-out: LC50 SK-BR3, SK-BR3, SRB, 48 hours exposure) was 1050 nM. The “TGI MEL-28” value (SK-MEL-28; MEL-28, SRB, 48 hours exposure) was 1.34E−07 Molar, the GI50 (SK-MEL-28; read-out: GI50 MEL-28, MEL-28, SRB, 48 hours exposure) was 61.4 nM and the CC50 (SK-MEL-28; read-out: LC50 MEL-28, MEL-28, SRB, 48 hours exposure) was 594 nM.

`COC1=C(C)C(=O)C2=C(C1=O)C1C3[C@@H]4SCC(=O)C(=O)OC[C@@H](c5c6c(c(C)c(OC(C)=O)c54)OCO6)N3[C@@H](O)[C@H](C2)N1C` (stereo partly drawn) [Et-594-quinone] was tested, and the GI50 (A-549; Homo sapiens, A549, 48 h, read-out: A549 GI50) was 2350 nM, the CC50 (A-549; Homo sapiens, A549, 48 h, read-out: A549 LC50) was 10300 nM and the IC (TGI) (A-549; Homo sapiens, A549, 48 h, read-out: A549 TGI) was 4910 nM. The GI50 (HT-29; Homo sapiens, HT-29, 48 h, read-out: HT29 GI50) was 653 nM, the CC50 (HT-29; Homo sapiens, HT-29, 48 h, read-out: HT29 LC50) was 16300 nM and the IC (TGI) (HT-29; Homo sapiens, HT-29, 48 h, read-out: HT29 TGI) was 1710 nM. It also gave a GI50 (LoVo; Homo sapiens, LoVo, 48 h, read-out: LOVO GI50) of 759 nM, a CC50 (LoVo; Homo sapiens, LoVo, 48 h, read-out: LOVO LC50) of 16300 nM and an IC (TGI) (LoVo; Homo sapiens, LoVo, 48 h, read-out: LOVO TGI) of 2910 nM. The GI50 (DU-145; Homo sapiens, DU-145, 48 h, read-out: DU145 GI50) was 1990 nM, the CC50 (DU-145; Homo sapiens, DU-145, 48 h, read-out: DU145 LC50) was 14600 nM and the IC (TGI) (DU-145; Homo sapiens, DU-145, 48 h, read-out: DU145 TGI) was 5390 nM. The GI50 (HeLa-APL; Homo sapiens, 48 h, read-out: HELA-APL GI50) was 398 nM, the CC50 (HeLa-APL; Homo sapiens, 48 h, read-out: HELA-APL LC50) was 1140 nM and the IC (TGI) (HeLa-APL; Homo sapiens, 48 h, read-out: HELA-APL TGI) was 674 nM. For the same molecule, the GI50 (HeLa; Homo sapiens, HeLa, 48 h, read-out: HELA GI50) was 343 nM, the CC50 (HeLa; Homo sapiens, HeLa, 48 h, read-out: HELA LC50) was 1120 nM and the IC (TGI) (HeLa; Homo sapiens, HeLa, 48 h, read-out: HELA TGI) was 620 nM. It also gave a GI50 (IGROV-1; Homo sapiens, IGROV-1, 48 h, read-out: IGROV GI50) of 452 nM, a CC50 (IGROV-1; Homo sapiens, IGROV-1, 48 h, read-out: IGROV LC50) of 3640 nM and an IC (TGI) (IGROV-1; Homo sapiens, IGROV-1, 48 h, read-out: IGROV TGI) of 958 nM. For the same molecule, the GI50 (IGROV-ET; Homo sapiens, 48 h, read-out: IGROV-ET GI50) was 4370 nM, the CC50 (IGROV-ET; Homo sapiens, 48 h, read-out: IGROV-ET LC50) was 16300 nM and the IC (TGI) (IGROV-ET; Homo sapiens, 48 h, read-out: IGROV-ET TGI) was 9110 nM. The GI50 (K-562; Homo sapiens, K562, 48 h, read-out: K562 GI50) was 137 nM, the CC50 (K-562; Homo sapiens, K562, 48 h, read-out: K562 LC50) was 1620 nM and the IC (TGI) (K-562; Homo sapiens, K562, 48 h, read-out: K562 TGI) was 478 nM. For the same molecule, the GI50 (LNCaP; Homo sapiens, LNCaP, 48 h, read-out: LNCAP GI50) was 274 nM, the CC50 (LNCaP; Homo sapiens, LNCaP, 48 h, read-out: LNCAP LC50) was 901 nM and the IC (TGI) (LNCaP; Homo sapiens, LNCaP, 48 h, read-out: LNCAP TGI) was 498 nM. For the same molecule, the GI50 (LoVo-Dox; Homo sapiens, 48 h, read-out: LOVO-DOX GI50) was 6270 nM, the CC50 (LoVo-Dox; Homo sapiens, 48 h, read-out: LOVO-DOX LC50) was 16300 nM and the IC (TGI) (LoVo-Dox; Homo sapiens, 48 h, read-out: LOVO-DOX TGI) was 13100 nM. The GI50 (PANC-1; Homo sapiens, PANC-1, 48 h, read-out: PANC-1 GI50) was 1580 nM, the CC50 (PANC-1; Homo sapiens, PANC-1, 48 h, read-out: PANC-1 LC50) was 14900 nM and the IC (TGI) (PANC-1; Homo sapiens, PANC-1, 48 h, read-out: PANC-1 TGI) was 4860 nM. It also gave a GI50 (SK-BR-3; Homo sapiens, SK-BR-3, 48 h, read-out: SK-BR3 GI50) of 302 nM, a CC50 (SK-BR-3; Homo sapiens, SK-BR-3, 48 h, read-out: SK-BR3 LC50) of 1160 nM and an IC (TGI) (SK-BR-3; Homo sapiens, SK-BR-3, 48 h, read-out: SK-BR3 TGI) of 593 nM. The GI50 (SK-MEL-28; Homo sapiens, SK-MEL-28, 48 h, read-out: MEL-28 GI50) was 413 nM, the CC50 (SK-MEL-28; Homo sapiens, SK-MEL-28, 48 h, read-out: MEL-28 LC50) was 1320 nM and the IC (TGI) (SK-MEL-28; Homo sapiens, SK-MEL-28, 48 h, read-out: MEL-28 TGI) was 738 nM.
